PubChem BioAssay (NCI)
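Tested at 5 concentrations; 48 h exposure; 96-well plates; endpoints linearly interpolated, else capped at highest concentration. GI50 marks 50% less growth. At the TGI there is no net growth.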

Key:
Test in all cases: inhibition of tumour cell growth, NCI panel, 48 h
OVCAR-3 ovarian = test system: OVCAR-3 ovarian
UO-31 renal = test system: UO-31 renal
SNB-19 CNS = test system: SNB-19 CNS
SF-295 CNS = test system: SF-295 CNS
PC-3 prostate = test system: PC-3 prostate
HOP-62 NSCLC = test system: HOP-62 NSCLC
HL-60(TB) leukemia = test system: HL-60(TB) leukemia
MCF7 breast = test system: MCF7 breast
KM12 colon = test system: KM12 colon
HCT-116 colon = test system: HCT-116 colon
SK-MEL-28 melanoma = test system: SK-MEL-28 melanoma
SK-MEL-5 melanoma = test system: SK-MEL-5 melanoma
HCC-2998 colon = test system: HCC-2998 colon
SK-OV-3 ovarian = test system: SK-OV-3 ovarian
K-562 leukemia = test system: K-562 leukemia
HOP-92 NSCLC = test system: HOP-92 NSCLC
NCI-H226 lung = test system: NCI-H226 lung
EKVX NSCLC = test system: EKVX NSCLC
MALME-3M melanoma = test system: MALME-3M melanoma
OVCAR-8 ovarian = test system: OVCAR-8 ovarian
IGROV1 ovarian = test system: IGROV1 ovarian
M14 melanoma = test system: M14 melanoma
SF-539 CNS = test system: SF-539 CNS
DU-145 prostate = test system: DU-145 prostate
LOX IMVI melanoma = test system: LOX IMVI melanoma
ACHN renal = test system: ACHN renal
A549 NSCLC = test system: A549 NSCLC
SW-620 colon = test system: SW-620 colon
NCI-H460 lung = test system: NCI-H460 lung
MDA-MB-231 breast = test system: MDA-MB-231 breast
786-0 renal = test system: 786-0 renal
MDA-MB-435 = test system: MDA-MB-435
SK-MEL-2 melanoma = test system: SK-MEL-2 melanoma
NCI-H522 lung = test system: NCI-H522 lung
SF-268 CNS = test system: SF-268 CNS
CCRF-CEM leukemia = test system: CCRF-CEM leukemia
SN12C renal = test system: SN12C renal
NCI-H23 lung = test system: NCI-H23 lung
U251 CNS = test system: U251 CNS
SR leukemia = test system: SR leukemia
HS 578T breast = test system: HS 578T breast
RPMI-8226 leukemia = test system: RPMI-8226 leukemia
CAKI-1 renal = test system: CAKI-1 renal
BT-549 breast = test system: BT-549 breast
T-47D breast = test system: T-47D breast
OVCAR-5 ovarian = test system: OVCAR-5 ovarian
NCI/ADR-RES ovarian = test system: NCI/ADR-RES ovarian
HCT-15 colon = test system: HCT-15 colon
OVCAR-4 ovarian = test system: OVCAR-4 ovarian
COLO 205 colon = test system: COLO 205 colon
HT29 colon = test system: HT29 colon
MOLT-4 leukemia = test system: MOLT-4 leukemia
UACC-62 melanoma = test system: UACC-62 melanoma

SMILES: CS(=O)(=O)Nc1cc(-c2ccc3ncnc(Nc4cccc(Cl)c4)c3c2)cnc1Cl
- GI50 (OVCAR-3 ovarian): 343 nM
- TGI (OVCAR-3 ovarian): 2280 nM
- GI50 (UO-31 renal): 105 nM
- TGI (UO-31 renal): 1860 nM
- GI50 (SNB-19 CNS): 717 nM
- TGI (SNB-19 CNS): 5050 nM
- GI50 (SF-295 CNS): 335 nM
- TGI (SF-295 CNS): 2200 nM
- GI50 (PC-3 prostate): 288 nM
- TGI (PC-3 prostate): 11500 nM
- GI50 (HOP-62 NSCLC): 220 nM
- TGI (HOP-62 NSCLC): 5290 nM
- GI50 (HL-60(TB) leukemia): 174 nM
- TGI (HL-60(TB) leukemia): 17700 nM
- GI50 (MCF7 breast): 215 nM
- TGI (MCF7 breast): 13600 nM
- GI50 (KM12 colon): 1030 nM
- TGI (KM12 colon): 5110 nM
- GI50 (HCT-116 colon): 664 nM
- TGI (HCT-116 colon): 5870 nM
- GI50 (SK-MEL-28 melanoma): 300 nM
- TGI (SK-MEL-28 melanoma): 4750 nM
- GI50 (SK-MEL-5 melanoma): 350 nM
- TGI (SK-MEL-5 melanoma): 1470 nM
- GI50 (HCC-2998 colon): 246 nM
- TGI (HCC-2998 colon): 1790 nM
- GI50 (SK-OV-3 ovarian): 262 nM
- TGI (SK-OV-3 ovarian): 1580 nM
- GI50 (K-562 leukemia): 1360 nM
- TGI (K-562 leukemia): 59800 nM
- GI50 (HOP-92 NSCLC): 122 nM
- TGI (HOP-92 NSCLC): 960 nM
- GI50 (NCI-H226 lung): 1100 nM
- TGI (NCI-H226 lung): 7620 nM
- GI50 (EKVX NSCLC): 416 nM
- TGI (EKVX NSCLC): 3590 nM
- GI50 (MALME-3M melanoma): 98.5 nM
- TGI (MALME-3M melanoma): 820 nM
- GI50 (OVCAR-8 ovarian): 1240 nM
- TGI (OVCAR-8 ovarian): 30300 nM
- GI50 (IGROV1 ovarian): 78.4 nM
- TGI (IGROV1 ovarian): 476 nM
- GI50 (M14 melanoma): 542 nM
- TGI (M14 melanoma): 10600 nM
- GI50 (SF-539 CNS): 439 nM
- TGI (SF-539 CNS): 3730 nM
- GI50 (DU-145 prostate): 455 nM
- TGI (DU-145 prostate): 10300 nM
- GI50 (LOX IMVI melanoma): 330 nM
- TGI (LOX IMVI melanoma): 2190 nM
- GI50 (ACHN renal): 474 nM
- TGI (ACHN renal): 46600 nM
- GI50 (A549 NSCLC): 1110 nM
- TGI (A549 NSCLC): 4170 nM
- GI50 (SW-620 colon): 480 nM
- TGI (SW-620 colon): 4870 nM
- GI50 (NCI-H460 lung): 642 nM
- TGI (NCI-H460 lung): 11100 nM
- GI50 (MDA-MB-231 breast): 1050 nM
- TGI (MDA-MB-231 breast): 5560 nM
- GI50 (786-0 renal): 457 nM
- TGI (786-0 renal): 7010 nM
- GI50 (MDA-MB-435): 418 nM
- TGI (MDA-MB-435): 2670 nM
- GI50 (SK-MEL-2 melanoma): 345 nM
- TGI (SK-MEL-2 melanoma): 2050 nM
- GI50 (NCI-H522 lung): 391 nM
- TGI (NCI-H522 lung): 6860 nM
- GI50 (SF-268 CNS): 337 nM
- TGI (SF-268 CNS): 4710 nM
- GI50 (CCRF-CEM leukemia): 463 nM
- TGI (CCRF-CEM leukemia): 20700 nM
- GI50 (SN12C renal): 447 nM
- TGI (SN12C renal): 51200 nM
- GI50 (NCI-H23 lung): 328 nM
- TGI (NCI-H23 lung): 10600 nM
- GI50 (U251 CNS): 503 nM
- TGI (U251 CNS): 2680 nM
- GI50 (SR leukemia): 371 nM
- TGI (SR leukemia): 4950 nM
- GI50 (HS 578T breast): 88 nM
- TGI (HS 578T breast): 782 nM
- GI50 (RPMI-8226 leukemia): 378 nM
- TGI (RPMI-8226 leukemia): 2360 nM
- GI50 (CAKI-1 renal): 299 nM
- TGI (CAKI-1 renal): 7710 nM
- GI50 (BT-549 breast): 272 nM
- TGI (BT-549 breast): 3280 nM
- GI50 (T-47D breast): 23.7 nM
- TGI (T-47D breast): 635 nM
- GI50 (OVCAR-5 ovarian): 223 nM
- TGI (OVCAR-5 ovarian): 13500 nM
- GI50 (NCI/ADR-RES ovarian): 1190 nM
- TGI (NCI/ADR-RES ovarian): 12000 nM
- GI50 (HCT-15 colon): 296 nM
- TGI (HCT-15 colon): 2720 nM
- GI50 (OVCAR-4 ovarian): 828 nM
- TGI (OVCAR-4 ovarian): 9220 nM
- GI50 (COLO 205 colon): 371 nM
- TGI (COLO 205 colon): 1800 nM
- GI50 (HT29 colon): 319 nM
- TGI (HT29 colon): 5840 nM
- GI50 (MOLT-4 leukemia): 235 nM
- TGI (MOLT-4 leukemia): 1170 nM
- GI50 (UACC-62 melanoma): 202 nM
- TGI (UACC-62 melanoma): 1260 nM
